From patent publication US20180369244A1, “BTK Inhibitors to Treat Solid Tumors Through Modulation of the Tumor Microenvironment” (Acerta Pharma B.V., priority 2014, published 2018)

Assays:
[1] = tested on: orthotopic pancreatic cancer (KPC cell line); assay: Orthotopic pancreatic cancer model; format: in vivo, C57BL/6 mice; settings: 15 mg/kg oral
Protocol: Cell line derived from KrasGl2D;Trp53R172H;Pdx1-Cre (KPC) mice were orthotopically implanted into the head of the pancreas after 35 passages. Based on the mice background from where the cell lines were generated, 1×10^6 cells were injected in C57BL/6 mice. Throughout the experiment, animals were provided with food and water ad libitum and subjected to a 12-h dark/light cycle. Animal studies were performed in accordance with the U.S. Public Health Service “Guidelines for the Care and Use of Laboratory Animals” (IACUC). After euthanization, pancreatic tumors were dissected out, weighed and single cell suspensions were prepared for flow cytometry analysis.

NK cells = assay: Antibody-dependent NK cell degranulation (CD107a flow cytometry); format: cell-based, human
From the text: Cell culture conditions were as follows. […] The HER18 cells were maintained in DEM supplemented with fetal bovine serum, penicillin-streptomycin and. Prior to assay, HER18 cells were harvested using trypsin-EDTA, washed with phosphate-buffered saline (PBS) containing 5% serum and viable cells were counted. […] Cell preparations were washed and then subject to positive selection of CD5+CD19^+ CLL cells using magnetic beads (MACS, Miltenyi Biotech). Cell preparations were used fresh after selection. […] Removal of non NK cells was performed using negative selection by MACS separation. Freshly isolated NK cells were washed three times, enumerated, and then used immediately for ADCC assays.
Lytic granule release was determined as follows. […] Degranulation was evaluated via by flow cytometery by externalization of CD107a, a protein normally present on the inner leaflet of lytic granules, and gating on NK cells (CD3-CD16^+ lymphocytes). The percentage of CD107a positive NK cells was quantified by comparison with a negative control (isotype control, unstained cells/FMO). Control cultures (NK cells cultured without target cells, or NK, target cell co-cultures in the absence of appropriate monoclonal antibody) were also evaluated; all experiments were performed in triplicate.

CD4+ T cells = assay: Th17 and Treg development from CD4+ T cells; format: cell-based
Protocol: Enriched CD4^+ T cells are plated on 24-well culture dishes that have been precoated 2 hr with 250 μL anti-TCRβ (0.5 μg/mL) plus anti-CD28 (5 μg/mL) at 37° C. in PBS. The cells are then supplemented with media containing BTK inhibitors along with the skewing cytokines as indicated in the following. The Th17 and Treg cultures are grown for 4 days before analysis. The cells are maintained for an additional 3 days with skewing cytokines (Th17; 20 ng/mL IL-6, 0.5 ng/mL TGF-β, 5 μg/mL IL-4, 5 μg/mL IFN-γ and Treg; 0.5 ng/mL TGF-β, 5 μg/mL IL-4, 5 μg/mL IFN-γ) and are supplemented with IL2 as a growth factor.

CD8+ T cells = assay: CD8+ T cell viability; format: cell-based; settings: 4 days culture
Protocol: Total T cells were plated on anti-TCR and anti-CD28 coated wells in the presence of both BTK inhibitors. Neutral culture conditions were used that will not polarize T cells to a helper lineage. The cells are grown for 4 days and are then stained with anti-CD4, anti-CD8 and LIVE/DEAD reagent to determine if the drugs have selective effects on either the CD4^+ or CD8^+ cells. Statistical significance was calculated using the Mann Whitney T-test. […]

CC#CC(=O)N1CCC[C@H]1c1nc(-c2ccc(C(=O)Nc3ccccn3)cc2)c2c(N)nccn12 [Formula (II), (S)-4-(8-amino-3-(1-(but-2-ynoyl)pyrrolidin-2-yl)imidazo[1,5-a]pyrazin-1-yl)-N-(pyridin-2-yl)benzamide]
immunosuppressive tumor associated myeloid cells and Tregs ([1]; pancreatic tumor-bearing mice): reduce immunosuppressive tumor associated myeloid cells and Tregs
tumor volume ([1]; vs vehicle): statistically significant reductions in tumor volume
inhibition of trastuzumab-stimulated NK cell degranulation (NK cells; 1 μM, HER18 target cells): no inhibitory effect
reduction of rituximab-stimulated NK cell degranulation (NK cells; DHL-4 target cells): < 2%
Th17 and Treg development (CD4+ T cells): no adverse effects on Th17 and Treg development
CD8+ T cell viability (CD8+ T cells): not observed
